Results on eight compounds are retold here after patent US7041810B2, “Alpha-2 adrenergic receptor polymorphisms” (University Of Cincinnati, priority 2000, dated 2006).

Assay [1] addresses T1, Lys251 alpha-2AAR (Homo sapiens, UniProt P08913, N266K).
T1 sequence (P08913 16-465 N266K): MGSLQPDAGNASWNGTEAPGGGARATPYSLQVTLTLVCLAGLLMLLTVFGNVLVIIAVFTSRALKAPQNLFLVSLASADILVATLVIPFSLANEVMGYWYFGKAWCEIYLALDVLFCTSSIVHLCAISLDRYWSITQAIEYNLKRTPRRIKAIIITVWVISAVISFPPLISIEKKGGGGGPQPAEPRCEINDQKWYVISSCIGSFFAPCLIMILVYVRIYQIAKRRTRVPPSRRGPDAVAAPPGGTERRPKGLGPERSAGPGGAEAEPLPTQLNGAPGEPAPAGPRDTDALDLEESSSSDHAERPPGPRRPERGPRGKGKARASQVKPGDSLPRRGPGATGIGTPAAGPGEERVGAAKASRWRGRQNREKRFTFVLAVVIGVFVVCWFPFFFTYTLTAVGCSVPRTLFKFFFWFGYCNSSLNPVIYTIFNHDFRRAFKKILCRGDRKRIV
The assay can be described thus: [35S]GTPγS binding, membranes of COS-7 cells coexpressing Giα2. Type of assay: biochemical. Further details: expressed in transfected cells; membranes or intact cells. The settings on record: 10 μM agonist. The protocol:
Receptor-G protein interaction was quantitated by [^35S] radiolabeled guanosine-5′-O-(3-thiotriphosphate) ([^35S]GTPγS) binding in COS-7 cells transiently transfected with each alpha-2AAR construct and Giα2. […] Nonspecific binding was measured in the presence of 10 μM GTPγS.
For orientation: GTPγS is a poorly hydrolysed GTP analogue; its binding reports G protein activation.

For assay [2], the target named is T2, wild-type Asn251 alpha-2AAR (Homo sapiens, UniProt P08913).
T2 sequence (P08913 16-465): T1 sequence (P08913 16-465 N266K) with K251N
The note with it: 5.0 μM forskolin, no agonist.
Description: (§1) Alpha-2AAR inhibition of adenylyl cyclase was determined in membrane preparations from CHO cells stably expressing the two receptors using methods similar to those previously described (18). […] Reactions were terminated by the addition of a stop solution containing excess ATP and cAMP and ˜100,000 dpm of [^3H]cAMP. Labeled cAMP was isolated by gravity chromatography over alumina columns with [^3H]cAMP used to quantitate column recovery. […] Results are expressed as percent inhibition of forskolin stimulated activity.

Assay [3] concerns the target T1, Lys251 alpha-2AAR.
Description: as §1
Assay [4] addresses T3, wild-type alpha-2BAR (Homo sapiens, UniProt P18089).
T3 sequence (P18089 1-450): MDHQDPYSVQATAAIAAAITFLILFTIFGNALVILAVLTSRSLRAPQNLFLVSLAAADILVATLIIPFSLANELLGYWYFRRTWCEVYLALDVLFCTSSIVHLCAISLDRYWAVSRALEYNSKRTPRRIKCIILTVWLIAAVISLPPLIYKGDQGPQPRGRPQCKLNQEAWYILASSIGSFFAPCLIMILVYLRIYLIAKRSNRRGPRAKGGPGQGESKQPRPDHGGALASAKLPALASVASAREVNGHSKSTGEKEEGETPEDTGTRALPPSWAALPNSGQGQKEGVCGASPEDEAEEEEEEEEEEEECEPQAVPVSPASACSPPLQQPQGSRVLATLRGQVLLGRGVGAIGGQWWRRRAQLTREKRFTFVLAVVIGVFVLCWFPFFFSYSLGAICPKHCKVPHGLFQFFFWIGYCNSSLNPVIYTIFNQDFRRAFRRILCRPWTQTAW
Description: Inhibition of forskolin stimulated adenylyl cyclase and desensitization, CHO membranes. Type of assay: biochemical. Further details: The human receptor consists of 450 amino acids; expressed in transfected cells. The protocol: For desensitization experiments, cells were pretreated for 30 min at 37° with media alone or with media containing 10 μM norepinephrine, placed on ice, and washed five times with cold PBS prior to membrane preparation. Desensitization of alpha-2BAR is manifested by a shift to the right in the dose-response curve for the inhibition of adenylyl cyclase (i.e., increase in EC50) without a significant change in the maximal response (17-19). To quantitate the magnitude of this desensitization, the inhibitory response under control conditions at a submaximal concentration of agonist (the EC50) in the assay was determined from the curve and compared to the response to this same concentration from membranes derived from cells exposed to norepinephrine. This method has been previously validated (26) in several G protein coupled receptor systems.

For assay [5], the target named is T3, wild-type alpha-2BAR. The note with it: read-out: [125I]-aminoclonidine saturation binding KD.
In assay [6] the target is T4, wild-type alpha-2CAR (Homo sapiens, UniProt P18825, L239R/R446P/S401I).
T4 sequence (P18825 1-462 L239R/S401I/R446P): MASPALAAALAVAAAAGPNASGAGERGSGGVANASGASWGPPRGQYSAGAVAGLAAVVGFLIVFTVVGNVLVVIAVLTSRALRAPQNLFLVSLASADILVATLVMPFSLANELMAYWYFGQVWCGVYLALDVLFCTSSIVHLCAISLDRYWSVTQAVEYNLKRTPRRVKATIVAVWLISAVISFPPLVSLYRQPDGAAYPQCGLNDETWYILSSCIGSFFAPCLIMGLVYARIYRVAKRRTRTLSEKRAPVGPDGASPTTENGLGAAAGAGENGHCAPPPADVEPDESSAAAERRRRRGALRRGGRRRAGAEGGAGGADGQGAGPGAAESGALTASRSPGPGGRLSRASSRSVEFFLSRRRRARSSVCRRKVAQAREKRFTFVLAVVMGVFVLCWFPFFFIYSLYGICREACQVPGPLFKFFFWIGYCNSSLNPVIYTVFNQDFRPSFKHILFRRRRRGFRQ
The note with it: 10 μM epinephrine, 5 min; 806±140 fmol/mg.

In assay [7] the target is T4, wild-type alpha-2CAR. The note with it: 10 μM epinephrine; thrombin 1 unit/ml.
The target of assay [8] is T4, wild-type alpha-2CAR. The assay can be described thus: Inhibition of forskolin stimulated adenylyl cyclase, CHO membranes. The settings on record: lower expressing line 565±69 fmol/mg. Further details: expressed in transfected cells; membranes or intact cells. Type of assay: biochemical.
Description: (§2) Reactions were terminated by the addition of a stop solution containing excess ATP and cAMP and ˜100,000 dpm of [^3H]cAMP. Labeled cAMP was isolated by gravity chromatography over alumina columns with [^3H]cAMP used to quantitate column recovery. […] Results are expressed as percent inhibition of forskolin stimulated activity.
The target in assay [9] is T5, wild-type alpha-2CAR (Homo sapiens, UniProt P18825).
T5 construct: expressed in transfected cells; membranes or intact cells
T5 sequence (P18825 1-462 L239R/S401I/R446P): T4 sequence (P18825 1-462 L239R/S401I/R446P)
The assay is described as above. Format: biochemical.
Description: as §2

For orientation: EC50 means the concentration at which the effect is half-maximal.

Numbering of substitutions follows the chain as printed.

Take `CCN1CCc2nc(N)oc2CC1` [BHT-933]: the “enhanced [35S]GTPγS binding for Lys251 as compared to the Asn251 receptor” value (from here on “enhanced … compared to the Asn251 receptor”) at Lys251 alpha-2AAR [1] was found to be 45%.

For the compound `C=C[C@@]1(C)CC(=O)[C@]2(O)[C@@]3(C)[C@@H](O)CCC(C)(C)[C@@H]3[C@H](O)[C@H](OC(C)=O)[C@@]2(C)O1` [Forskolin, forskolin], the “Forskolin adenylyl cyclase activity” value in [2] was determined as 32.7 ± 4.0 pmol/min/mg; on Lys251 alpha-2AAR [3] (5.0 μM forskolin, no agonist), 31.6 ± 6.5 pmol/min/mg; at wild-type alpha-2BAR [4] (forskolin 5 μM, no agonist) it was 15.1 ± 0.9 pmol/min/mg.

Take `Brc1c(NC2=NCCN2)ccc2nccnc12` [UK 14304]: the “enhanced … compared to the Asn251 receptor” value at Lys251 alpha-2AAR [1] is about 40%.

On to `Nc1cc(Cl)c(NC2=NCCN2)c(Cl)c1I` [[^125I]-aminoclonidine, aminoclonidine], for which the Kd at wild-type alpha-2BAR [5] came out at 1.33 ± 0.12 nM.

`CNC[C@H](O)c1ccc(O)c(O)c1` [epinephrine]: the “accumulation of inositol phosphates over basal” value at wild-type alpha-2CAR [6] is given as 30±3%. Further, at wild-type alpha-2CAR [7], the “MAP kinase stimulation as a percent of the thrombin response” value is on record as 128±10.0%. Moreover, at wild-type alpha-2CAR [8], the “inhibition of adenylyl cyclase” value is given as 73±2.4%.

As for `N=C(N)N/N=C/c1c(Cl)cccc1Cl` [guanabenz], the “enhanced … compared to the Asn251 receptor” value at Lys251 alpha-2AAR [1] is 72%.

`NC[C@H](O)c1ccc(O)c(O)c1` [norepinephrine]: the EC50 on wild-type alpha-2CAR [9] amounted to 219 ± 13.7 nM; on wild-type alpha-2BAR [4] it was 7.9 ± 2.1 nM. At Lys251 alpha-2AAR [1], the “enhanced … compared to the Asn251 receptor” value is about 40%. Further, on wild-type alpha-2BAR [4] (626±54 fmol/mg), the “Max Inhibition (%) of forskolin stimulated adenylyl cyclase” value was 28.5 ± 1.6%. Besides, the “Desensitization (%)” value on wild-type alpha-2BAR [4] (after 10 μM norepinephrine 30 min) is on record as about 54%. Also, on wild-type alpha-2BAR [4] (agonist at the EC50 of control membranes, cells pretreated with media alone), the “Submax inhibition (%) Ctrl” value is given as 16.5 ± 3.9%. Further, the “Submax inhibition (%) NE” value on wild-type alpha-2BAR [4] (same agonist concentration, cells pretreated with 10 μM norepinephrine 30 min) is on record as 7.6 ± 2.3 %.

Take `Cc1cc(C(C)(C)C)c(O)c(C)c1CC1=NCCN1` [oxymetazoline]: the “augmented function of Lys251 compared to the Asn251 receptor” value on Lys251 alpha-2AAR [3] (adenylyl cyclase inhibition) is listed as about 40%.
